The source made the active and inactive calls. The calls are words filed in the database; no cut-off is given here.

In data set [1] the target is T1, Integrin alpha-V/beta-3 (Homo sapiens, UniProt P05106+P06756). Briefly: Binding affinity to […] integrin alphaVbeta3 in human SK-N-FI cells using Cy7-labeled compound incubated for 4 hrs by confocal microscopy. The class given is cell-based.
Data set [2] has as its system SK-N-FI. Kind of data set: Antitumor activity against human SK-N-FI cells xenografted in Ncr nude mouse assessed as inhibition of tumor growth at 1 to 10 mg/kg, sc dosed daily up to 15 days relative to control. The class given is functional. (In general: In xenograft studies the graft and the host belong to different species.)
The test system of data set [3] is SK-N-FI. Kind of data set: Antitumor activity against human SK-N-FI cells xenografted in Ncr nude mouse assessed as inhibition of tumor growth by measuring suppression of tumor weight at 3 mg/kg, sc dosed daily for 15 days relative to control. The data set is classed as functional. The conditions noted are these: for inhibition in vivo at 3 mg/kg: 360 h, read-out: TGI.

Data set [4] has as its system SK-N-FI. Kind of data set: Inhibition of cell proliferation of human SK-N-FI cells at 30 to 100 uM incubated for 48 hrs relative to control. The class given is functional.
Data set [5] can be described thus: Drug uptake in nucleus of human SK-N-FI cells using Cy7-labeled compound incubated for 4 hrs by confocal microscopy. The class given is ADME, subcellular.
The test system of data set [6] is SK-N-FI. Kind of data set: Antitumor activity against human SK-N-FI cells xenografted in Ncr nude mouse assessed as inhibition of neuroblastoma tumor cell viability at 1 to 10 mg/kg, sc dosed daily for 15 days relative to control. The data set is classed as functional.
The test system of data set [7] is SK-N-FI. Kind of data set: Antitumor activity against human SK-N-FI cells xenografted in Ncr nude mouse assessed as increase in neuroblastoma tumor apoptosis and necrosis at 1 to 10 mg/kg, sc dosed daily for 15 days relative to control. The data set is classed as functional.
For data set [8], the system named is SK-N-FI. Briefly: Inhibition of cell proliferation of human SK-N-FI cells at 30 to 100 uM incubated for 24 hrs relative to control. The data set is classed as functional.
Data set [9] concerns the target T1, Integrin alpha-V/beta-3. Briefly: Binding affinity to purified integrin alphaVbeta3 receptor (unknown origin) incubated for 2 hrs. The data set is classed as protein-complex assay.
Target sequence in this assay (P05106 27-788 limits assumed): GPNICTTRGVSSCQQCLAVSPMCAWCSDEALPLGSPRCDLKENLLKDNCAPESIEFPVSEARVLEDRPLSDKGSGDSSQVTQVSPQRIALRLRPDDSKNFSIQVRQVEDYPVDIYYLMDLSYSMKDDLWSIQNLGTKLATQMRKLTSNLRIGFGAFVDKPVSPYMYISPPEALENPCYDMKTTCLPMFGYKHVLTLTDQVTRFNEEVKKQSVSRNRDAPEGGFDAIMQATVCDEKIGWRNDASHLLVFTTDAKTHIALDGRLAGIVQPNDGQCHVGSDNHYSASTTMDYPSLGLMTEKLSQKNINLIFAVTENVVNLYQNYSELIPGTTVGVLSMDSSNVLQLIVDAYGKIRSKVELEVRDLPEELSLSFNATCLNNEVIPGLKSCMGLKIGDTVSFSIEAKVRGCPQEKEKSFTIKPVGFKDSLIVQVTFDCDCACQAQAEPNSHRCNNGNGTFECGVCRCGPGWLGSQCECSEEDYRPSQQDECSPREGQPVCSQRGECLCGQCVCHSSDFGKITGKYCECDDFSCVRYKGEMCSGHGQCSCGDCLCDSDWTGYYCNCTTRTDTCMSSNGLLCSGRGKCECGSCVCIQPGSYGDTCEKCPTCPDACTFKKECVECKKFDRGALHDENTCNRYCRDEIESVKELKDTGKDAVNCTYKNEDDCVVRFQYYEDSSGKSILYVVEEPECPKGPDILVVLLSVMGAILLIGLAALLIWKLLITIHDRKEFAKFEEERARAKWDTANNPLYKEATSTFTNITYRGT
Target sequence in this assay (P06756 31-889 limits assumed): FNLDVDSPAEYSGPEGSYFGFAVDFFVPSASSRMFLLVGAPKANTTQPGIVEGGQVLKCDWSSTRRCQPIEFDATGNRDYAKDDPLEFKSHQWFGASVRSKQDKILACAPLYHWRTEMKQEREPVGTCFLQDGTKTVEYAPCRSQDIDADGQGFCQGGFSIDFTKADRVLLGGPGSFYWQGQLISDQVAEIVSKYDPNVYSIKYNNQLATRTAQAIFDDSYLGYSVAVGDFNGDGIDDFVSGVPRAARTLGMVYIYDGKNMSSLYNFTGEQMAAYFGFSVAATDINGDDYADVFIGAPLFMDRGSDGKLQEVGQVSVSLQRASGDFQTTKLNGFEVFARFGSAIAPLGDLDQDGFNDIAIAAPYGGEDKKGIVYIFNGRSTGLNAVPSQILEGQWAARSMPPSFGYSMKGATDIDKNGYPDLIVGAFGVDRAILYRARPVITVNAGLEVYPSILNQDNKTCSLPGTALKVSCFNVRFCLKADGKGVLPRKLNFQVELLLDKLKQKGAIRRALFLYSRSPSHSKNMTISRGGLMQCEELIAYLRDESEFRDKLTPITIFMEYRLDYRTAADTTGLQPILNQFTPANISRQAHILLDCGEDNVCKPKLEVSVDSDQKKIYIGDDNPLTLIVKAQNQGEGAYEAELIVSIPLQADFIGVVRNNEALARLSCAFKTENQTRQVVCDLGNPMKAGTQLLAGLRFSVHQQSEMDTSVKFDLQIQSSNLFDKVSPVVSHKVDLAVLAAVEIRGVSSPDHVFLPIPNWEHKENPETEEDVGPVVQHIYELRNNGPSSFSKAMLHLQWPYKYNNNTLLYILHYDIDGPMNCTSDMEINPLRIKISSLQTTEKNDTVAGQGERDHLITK
Target sequence in this assay (P06756 891-1048 limits assumed): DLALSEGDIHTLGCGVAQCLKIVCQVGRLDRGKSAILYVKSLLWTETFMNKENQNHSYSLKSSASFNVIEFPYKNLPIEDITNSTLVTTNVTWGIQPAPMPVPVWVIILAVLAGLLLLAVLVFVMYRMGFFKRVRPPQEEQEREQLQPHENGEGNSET
Data set [10] is described as follows: Drug uptake in human SK-N-FI cells using Cy7-labeled compound incubated for 4 hrs by confocal microscopy. The data set is classed as ADME, cell-based.

For the compound `N=C(N)NCc1ccc(OCCOCCOCCOCCOCCOCCOCCn2cc(COc3c(I)cc(Oc4c(I)cc(CC(=O)O)cc4I)cc3I)nn2)cc1`, the result at Integrin alpha-V/beta-3 [1] was Active. Further, the TGI with SK-N-FI [2] is 80 - 100%. In addition, in the data set on SK-N-FI [3], the inhibition in vivo at 3 mg/kg fell in the range of 80 to 100%. Besides, the “inhibition (INH)” value was 50 - 60% in the data set on SK-N-FI [4], 80 - 100% with SK-N-FI [6] and 30% in the data set with SK-N-FI [8]. The Drug uptake result in data set [5] is given as “Not Active”. Besides, in the data set on SK-N-FI [7], the Activity was 80 - 100%.

In turn, `O=C(O)Cc1cc(I)c(Oc2cc(I)c(O)c(I)c2)c(I)c1` [TETRAC] showed a half-maximal inhibitory concentration (IC50) on Integrin alpha-V/beta-3 [9] of 62.4 nM. Moreover, the inhibition in vivo at 3 mg/kg with SK-N-FI [3] fell in the range of 40 to 50%. Besides, the Drug uptake entry in data set [5] is on record as “Active”.

For `N=C(N)NCc1ccccc1`, in the data set on SK-N-FI [3], the TGI entry is “inactive”. In [10], this compound yielded a Drug uptake of 90 to 100%.

Broadly, the IC50 is the concentration that inhibits the measured activity by half. Lower therefore signals greater potency in that assay.

Source of the values: ChEMBL document CHEMBL4613328, “Dual Targeting of Norepinephrine Transporter (NET) Function and Thyrointegrin αvβ3 Receptors in the Treatment of Neuroblastoma” (J Med Chem, 2020).
